The values that follow come from US6831080B2, “Cinnamide derivatives as KCNQ potassium channel modulators” (Bristol-Myers Squibb Company, priority 2001, dated 2004).

The test system of data set [1] is stretched attend postures, BalbC/HSD mice. The experiment in a line: Canopy test for anxiety: stretched attend postures (SAPs). The format is in vivo, mouse. From the text:
The purpose of the Canopy test is to investigate the potential of compounds of Formula I as effective treatments for anxiety by examining an integral component of the risk assessment repertoire of defensive behaviors, the stretched attend posture (SAPs). […] This behavior is investigatory, and is considered an important behavioral indicator of anxiety in mice (Grewal et al., 1997). In brief, mice are placed on an elevated circular platform with a covered space in the middle, and an open space surrounding the covered zone. The number of SAPs the animals makes when exploring this environment are measured.
Subjects: Male BalbC/HSD mice (Harlan Sprague Dawley) weighing approximately 20-25 g at the beginning of the experiment, were used. Animals were group housed 4-5 per cage, in standard shoebox cages and maintained on a 12:12 h light-dark cycle (lights on at 0600). All animals were allowed food and water ad libitum throughout the procedure.
Apparatus: The test apparatus is comprised of a black plexiglas circular platform (70 cm diameter) elevated 60 cm above the floor. A clear red plexiglas (translucent) ‘canopy’ (38 cm diameter) is supported 4 cm directly above the platform by a central pillar, effectively dividing the platform into an inner, covered zone (beneath the canopy) and an outer, exposed zone. The apparatus is illuminated by normal room lighting.
Procedure: On test days mice are transported in their home cage to the testing room which is free of noise/distraction and the mice are injected with the compound of choice, prior to testing. For the KCNQ compounds, when administered IV, pretreatment time is 15 minutes. For oral administration, pretreatment time is 1 hour. Following the pretreatment, the animal is placed in the covered zone of the platform, always oriented in the same direction, facing the pillar. For 5 minutes the animals are allowed to freely explore the apparatus. The dependent variable is the number of Stretched Attend Postures, which are scored by an observer blind to treatment condition. Data were analyzed by an overall analysis of variance followed by Dunnett's post hoc tests. An effect was considered significant if p<0.05.
All test compounds are administered in a volume of 10 ml/kg. Vehicle and buspirone (as the positive control) treated mice were run with each experiment, and buspirone was dissolved in the same vehicle as used per each compound. Compounds of Formula I were administered IV, in a vehicle containing 10% PEG400/5% Tween/85% water, warmed on a hot plate.

The target in data set [2] is cloned mouse KCNQ2 (mKCNQ2) (Mus musculus, UniProt Q9Z351). The experiment in a line: KCNQ oocyte two-electrode voltage clamp, whole-cell outward current. The format is cell-based. Conditions: single holding potential (−40 μM [sic]), Xenopus oocytes. Here is the method:
The ability of compounds described in the present invention to open KCNQ channels and increase whole-cell outward (K^+) KCNQ-mediated currents was assessed under voltage-clamp conditions by determining their ability to increase cloned mouse KCNQ2 (mKCNQ2)-mediated, heteromultimeric KCNQ2/3 (mKCNQ2/hKCNQ3)-mediated, and human KCNQ5 (hKCNQ5)-mediated outward currents heterologously expressed in Xenopus oocytes. Oocytes were prepared and injected using standard techniques; each oocyte was injected with approximately 50 nl of mKCNQ2, or hKCNQ5 cRNA. In the case of mKCNQ2/h3 heteromultimeric channel expression, equal amounts (25-50 nL) of each cRNA were co-injected. […] Following injection, oocytes were maintained at 17° in ND96 medium consisting of (in mM): NaCl, 90; KCl, 1.0; CaCl2, 1.0; MgCl2, 1.0; HEPES, 5.0; pH 7.5. Horse serum (5%) and penicillin/streptomycin (5%) were added to the incubation medium. Recording commenced 2-6 days following mRNA injection. Prior to the start of an experiment oocytes were placed in a recording chamber and incubated in Modified Barth's Solution (MBS) consisting of (in mM): NaCl, 88; NaHCO3, 2.4; KCl, 1.0; HEPES, 10; MgSO4, 0.82; Ca(NO3)2, 0.33; CaCl2, 0.41; pH 7.5.
Oocytes were impaled with electrodes (1-2 MΩ) and standard 2-electrode voltage clamp techniques were employed to record whole-cell membrane currents. Recordings were accomplished using standard two-electrode voltage clamp techniques [Stuhmer, W., et al., Methods in Enzymology, Vol. 207: 319-339 (1992)]. Voltage-clamp protocols typically consisted of a series of voltage steps 1-5 sec duration, in +10 mV steps from a holding potential of −90 mV to a maximal potential of +40 mV; records were digitized at 5 kHz and stored on a computer using pClamp data acquisition and analysis software (Axon Instruments). Compounds were evaluated at a single concentration and at a single holding potential (−40 μM); the effect of the selected compounds of Formula I on KCNQ2 current was expressed as the percent of control current and is listed in Table I.
For orientation: In two-electrode clamp one electrode senses voltage and the other passes current.

For the next data set, the target named is T1, mKCNQ2 channels (Mus musculus, UniProt Q9Z351).
T1 construct: expressed in transfected cells
T1 sequence (Q9Z351 whole entry): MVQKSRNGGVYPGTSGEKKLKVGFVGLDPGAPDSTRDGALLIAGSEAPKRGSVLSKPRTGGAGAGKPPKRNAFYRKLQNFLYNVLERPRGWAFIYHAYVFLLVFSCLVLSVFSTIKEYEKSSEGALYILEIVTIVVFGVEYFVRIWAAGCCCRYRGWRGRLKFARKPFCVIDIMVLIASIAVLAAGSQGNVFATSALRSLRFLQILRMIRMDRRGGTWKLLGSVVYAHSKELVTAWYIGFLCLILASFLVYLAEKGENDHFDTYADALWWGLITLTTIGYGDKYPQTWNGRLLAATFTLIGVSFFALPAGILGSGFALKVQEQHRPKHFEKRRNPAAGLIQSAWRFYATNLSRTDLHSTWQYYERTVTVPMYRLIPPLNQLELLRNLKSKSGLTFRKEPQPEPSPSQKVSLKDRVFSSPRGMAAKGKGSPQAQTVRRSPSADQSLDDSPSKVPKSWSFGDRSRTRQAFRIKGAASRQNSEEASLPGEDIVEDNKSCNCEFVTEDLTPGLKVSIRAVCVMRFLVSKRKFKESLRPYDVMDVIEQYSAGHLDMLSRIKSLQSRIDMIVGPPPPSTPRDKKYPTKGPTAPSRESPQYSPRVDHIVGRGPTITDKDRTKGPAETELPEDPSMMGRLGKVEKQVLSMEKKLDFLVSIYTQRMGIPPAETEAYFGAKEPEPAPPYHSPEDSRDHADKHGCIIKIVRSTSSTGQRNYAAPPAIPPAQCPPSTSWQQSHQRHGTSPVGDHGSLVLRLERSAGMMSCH
The data set can be described thus: Whole-cell patch-clamp, HEK 293 stable cell line expressing mKCNQ2 channels. The format is cell-based. The settings on record: HEK 293 mKCNQ2, Hill fit. The procedure: Whole-cell patch-clamp recordings were made from an HEK 293 stable cell line expressing mKCNQ2 channels, maintained in culture for 1-2 days. Patch pipettes had initial resistances of 2.5-4 MΩ. Currents were recorded with an EPC-9 amplifier (HEKA, Lambrecht, Germany) controlled with software (Pulse, HEKA) run on a standard lab PC. Series resistance compensation was used during current recording, and set at 80%. The series resistance (R) and cell capacitance (C) were determined electronically by subtracting the capacitive currents at the onset and offset of a 5 mV voltage step. The cancellation of whole-cell capacitance transients was virtually complete in all cells. Analog current signals were low-pass filtered at 2.9 kHz using a four-pole Bessel filter −3 dB) and stored on a local network server computer at a sampling rate of […]. All recordings were performed at room temperature (20-22° C.). The pipette solution contained (mM): KCl, 150; CaCl2, 2.5; EGTA, 5; MgCl2, 1; HEPES, 10; pH to 7.3 with KOH, and Osmolality of 290-300 mOsm. The extracellular solution contained (mM): NaCl, 140; KCl, 2.5; CaCl2, 2.5; MgCl2, 1; glucose, 10; HEPES, 10; pH to 7.3 with NaOH, and Osmolality of 305-310 mOsm
Concentration response data were generated by measuring the difference in the steady-state amplitude of current in the presence of compound at the end of a 600 ms voltage-clamp step from a holding potential of −80 mV. The concentration-response data were fitted with Hill-type equations: […]
where I is the steady-state current at a given concentration of agonist [A]; and Imax, EC50 and nH are parameters estimated from the curve fit. In some cases the concentration-response data were fitted with equations consisting of the sum of two Hill-type components. Current-voltage (I/V) relationships for agonist-evoked currents were obtained by performing 600 ms voltage steps (−110 mV to +40 mV) in the absence and presence of agonist.
Background: Patch clamp records ionic current or voltage across a cell membrane.

Data set [3] concerns cortical spreading depression (KCl application), Long-Evans rats. The experiment in a line: In vivo electrophysiology: number of cortical spreading depressions produced by KCl application. Conditions: 100 mg/kg, i.v., 15 min prior to KCl; rat. The text has this:
Male Long-Evans rats (300-450 g) were used in the present studies (Harlan). Rats were anesthetized with urethane anesthesia (1.2 g/kg i.p.) and placed in a stereotaxic frame. Under anesthesia a Silastic catheter was placed in the jugular vein of the rats. The skull was exposed using a scalpel. A small hole (approximately 2 mm by 3 mm) was drilled in to the skull rostral to the lambdoid suture using a microdrill and steel burr. The dura was disrupted and a drop of mineral oil was placed in this hole to prevent dehydration of the underlying cortex. Ultimately this hole was used for the application of crystalline KCl (described below).
Two additional holes were place in the skull unilaterally at 4 and 8 mm rostral to the application hole. Silver wire electrodes were placed in these latter holes and secured to the skull using acrylic cement. A similar silver wire electrode was sutured to the nuchal muscle to serve as a reference electrode. Electrical DC recordings were obtained using a standard differential amplifier (Warner, DP-304) and commercially available data acquisition equipment (Cambridge Electronic Design, 1401 A-D converter and Spike2 software).
All experimental procedures were conducted while the rats were maintained under anesthesia. Rats were injected with test compound, valproic acid or vehicle (100% PEG-400) 15 min prior to the application of crystalline KCl to the application site described above. All injections were given via the jugular vein at a volume of ≦0.5 ml/kg. Only one treatment was tested per animal. The effect of valproic acid was also determined in this study due to the fact that Depakote™ (divalproex sodium) is one of only three drugs currently indicated for the prophylatic treatment of migraine headache. Valproic acid (30-200 mg/kg i.v.) was obtained from Sigma Chemical Company and was dissolved in a vehicle of isotonic saline.
KCl was applied to the application site for 10 min and was then removed using a saline soaked cotton swab. Mineral oil was subsequently reapplied to the application site. Typically, this application produced a long-lasting series of spreading depressions. The number of spreading depressions produced by this KCl application was the primary measure used to access the effectiveness of compounds in this assay.
Data were analyzed using analyses of variance followed by the Dunnett post-hoc test for pairwise comparisons, when appropriate. A difference was considered significant when p≦0.05.
The effect of representative compounds of Formula I on spreading depression is expressed as the percent reduction from vehicle control and is listed in Table 3.

Chain of cloned mouse KCNQ2 (mKCNQ2) (Q9Z351 whole entry): as above

For `CC(NC(=O)/C=C/c1ccc(F)cc1)c1ccc(F)c(N2CCOCC2)c1` (racemic) [Example 152, (±)-N-[1-(4-Fluoro-3-morpho-lin-4-yl-phenyl)-eth-yl]-3-(4-fluoro-phen-yl)-acrylamide], the “Stretched attend postures, percent of vehicle control” value in data set [1] (separate experiments with a vehicle control, dose not given) is on record as 80 % of vehicle control.
On to `CC(NC(=O)/C=C/c1cccc(F)c1)c1ccc2c(c1)OCCO2` (racemic) [Example 183, (±)-3-(3-Fluorophenyl)-N-[1-(2.3-dihydrobenzo[1,4]dioxin-6-yl)-ethyl]acrylamide], for which the activity at 10 µM in data set [2] amounted to 135%.
On the same count and under the same terms, under `COC(=O)N1CCc2ccc(C(C)NC(=O)/C=C/c3ccccc3)cc2C1` (racemic) [Example 197, (±)-7-[1-(3-Phenyl-acryloyl-amino)-ethyl]-3,4-di-hydro-1H-iso-quinoline-2-carboxylic acid methyl ester] stands 187%.
Consider `COC(=O)N1CCc2ccc(C(C)NC(=O)/C=C/c3ccc(Cl)cc3)cc2C1` (racemic) [Example 199, (±)-7-{1-[3-(4-Chloro-phen-yl)-acryloylamino]-eth-yl}-3,4-dihydro-1H-iso-quinoline-2-carboxylic acid methyl ester], for which the activity at 5 µM in data set [2] is 138%.
Consider `COC(=O)N1CCc2ccc(C(C)NC(=O)/C=C/c3ccccc3C)cc2C1` (racemic) [Example 200, (±)-7-[1-(3-o-Tolyl-acryloyl-amino)-ethyl]-3,4-di-hydro-1H-iso-quinoline-2-carboxylic acid methyl ester], for which the activity at 10 µM in data set [2] turned out to be 126%.
Turning to `COC(=O)N1CCc2ccc(C(C)NC(=O)/C=C/c3ccccc3Cl)cc2C1` (racemic) [Example 201, (±)-7-{1-[3-(2-Chloro-phen-yl)-acryloylamino]-eth-yl}-3,4-dihydro-1H-iso-quinoline-2-carboxylic acid methyl ester], the activity at 5 µM in data set [2] amounted to 157%.
As for `CC(NC(=O)/C=C/c1ccc(Cl)cc1)c1ccc2c(c1)CCO2` (single isomer, unassigned) [Example 79, 3-(4-Chloro-phenyl)-N-[1-(2,3-di-hydro-benzo-furan-5-yl)-ethyl]-acrylamide], the activity at 1 µM in data set [2] is 123%.
As to `O=C1CC2(CCCC2)CC(=O)N1CCCCN1CCN(c2ncccn2)CC1` [Buspirone, buspirone, reference compound], in data set [1] (0.5 mg/kg, i.v., mouse), the “% Reduction SAPs” value was 71 (0.5 mg/kg. i.v.) %. In addition, the “Reduction in stretched attend postures (in words)” value in data set [1] (buspirone 0.5 mg/kg, compounds of Formula I administered IV) is reported as “significant reduction”.
Turning to `C[C@H](NC(=O)/C=C/c1ccccc1)c1ccc2ccccc2c1` [Example 2, (S)-N-(1-Naphthalen-2-yl-eth-yl)-3-phenyl-acryla-mide], the activity at 5 µM in data set [2] is 160%.
For `COc1cccc(/C=C/C(=O)N[C@@H](C)c2ccc3ccccc3c2)c1OC` [Example 6, (S)-3-(2,3-Dimethoxy-phen-yl)-N-(1-naphthalen-2-yleth-yl)-acrylamide], in data set [2], the activity at 1 µM was 110%.
Same read-out and setting: the same measure for `C[C@H](NC(=O)/C=C/c1ccc(OC(F)(F)F)cc1)c1ccc2ccccc2c1` [Example 19, (S)-N-(1-Naphthalen-2-yl-eth-yl)-3-(4-tri-fluoromethoxy-phen-yl)-acrylamide]: 123%.
The melting point is the temperature of the solid-liquid transition. As a reminder, the EC50 is the concentration giving half of the maximal effect. Higher therefore signals a need for much substance. For `CC(NC(=O)/C=C/c1cc(F)cc(F)c1)c1ccc2c(c1)CCCN2` (stereo not shown) [Example 248, 3-(3,5-difluoro-phenyl)-N-[1-(1,2,3,4-tetrahydro-quinolin-6-yl)-ethyl]acrylamide], the melting point is 180 °C (dec.). Also, the EC50 on mKCNQ2 channels (@ −40 mV) is 5 µM. For the same compound, the Emax on mKCNQ2 channels (HEK293, read-out: Imax (%)) was 290%.
For `CCCC(CCC)C(=O)O` [Valproic acid, reference compound], in data set [3], the “% Reduction (number of spreading depressions, from vehicle control)” value is reported as 31 (100 mg/kg, i.v.) %.
